Measured values as given in patent publication US7902181B2, “Compounds 010” (AstraZeneca AB, priority 2007, dated 2011).
Structures can show the parent of a compound that is named as a salt.

Molecular target: Recombinant Human (rh) DPP1 (Homo sapiens, UniProt P53634)
Assay: Fluorescence Assay for Recombinant Human (rh) DPP1
Assay type: biochemical
Details: rhDPP1; substrate H-Gly-Arg-AMC; pH5.0; 30 min pre-incubation, 60 min reaction at 22° C.; highest concentration 10 μM; read-out: DPP1 activity, pIC50 (converted)
Outline: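 Release of AMC from 100 μM H-Gly-Arg-AMC by rhDPP1 ([…]) in 25 mM piperazine pH 5.0, 50 mM NaCl, 5 mM DTT, 0.01% Triton X-100, 1% DMSO, 22 °C. Inhibitors (12-point half-log, top 10 μM) preincubated 30 min, reaction 60 min, fluorescence at 350/450 nm; pIC50 from 4-parameter logistic fit.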

Recombinant Human (rh) DPP1, sequence (P53634 25-463): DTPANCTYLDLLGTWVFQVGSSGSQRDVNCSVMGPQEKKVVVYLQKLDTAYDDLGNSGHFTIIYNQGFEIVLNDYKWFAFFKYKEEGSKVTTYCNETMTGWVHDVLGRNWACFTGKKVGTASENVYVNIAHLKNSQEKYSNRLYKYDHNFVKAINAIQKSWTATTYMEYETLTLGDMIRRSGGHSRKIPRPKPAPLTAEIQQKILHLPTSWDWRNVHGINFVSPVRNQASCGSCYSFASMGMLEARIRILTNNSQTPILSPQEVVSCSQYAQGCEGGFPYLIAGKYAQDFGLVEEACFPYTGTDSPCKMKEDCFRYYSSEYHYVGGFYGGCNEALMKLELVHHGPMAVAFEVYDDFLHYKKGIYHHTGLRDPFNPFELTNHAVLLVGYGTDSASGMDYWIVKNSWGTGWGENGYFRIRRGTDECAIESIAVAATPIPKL

Structure (SMILES)	IC50 [nM]
N#Cc1cccc(-c2ccc(C[C@@H](C#N)NC(=O)[C@@H]3CCCCN3)cn2)c1 [Example 78, (S)-N-((S)-1-Cyano-2-(6-(3-cyanophenyl)pyridin-3-yl)ethyl)piperidine-2-carboxamide Trifluoroacetate]	100
N#C[C@H](Cc1ccc(-c2ccccc2O)nc1)NC(=O)[C@@H]1CCCCN1 [Example 79, (S)-N-((S)-1-Cyano-2-(6-(2-hydroxyphenyl)pyridin-3-yl)ethyl)piperidine-2-carboxamide]	316
CN(C)S(=O)(=O)c1ccc(-c2ccc(C[C@@H](C#N)NC(=O)[C@@H]3CCCCN3)cn2)cc1 [Example 80, (S)-N-((S)-1-Cyano-2-(6-(4-(N,N-dimethylsulfamoyl)phenyl)pyridin-3-yl)ethyl)piperidine-2-carboxamide Trifluoroacetate]	31.6
N#C[C@H](Cc1ccc(-c2ccc(C(F)(F)F)cc2)cc1)NC(=O)[C@@H]1CCCCN1 [Example 82, (S)-N-((S)-1-Cyano-2-(4′-(trifluoromethyl)biphenyl-4-yl)ethyl)piperidine-2-carboxamide Trifluoroacetate]	5.01
N#C[C@H](Cc1ccc(-c2cccc(C(=O)N3CCCCC3)c2)cc1)NC(=O)[C@@H]1CCCCN1 [Example 83, (S)-N-((S)-1-Cyano-2-(3′-(piperidine-1-carbonyl)biphenyl-4-yl)ethyl)piperidine-2-carboxamide Trifluoroacetate]	200
N#C[C@H](Cc1ccc(-c2cccc(C(=O)Nc3nccs3)c2)cc1)NC(=O)[C@@H]1CCCCN1 [Example 84, (S)-N-((S)-1-Cyano-2-(3′-(thiazol-2-ylcarbamoyl)biphenyl-4-yl)ethyl)piperidine-2-carboxamide Trifluoroacetate]	25.1
N#CC1CCN(S(=O)(=O)c2ccc(-c3ccc(C[C@@H](C#N)NC(=O)[C@@H]4CCCCN4)cc3)cc2)CC1 [Example 91, (S)-N-((S)-1-Cyano-2-(4′-(4-cyanopiperidin-1-ylsulfonyl)biphenyl-4-yl)ethyl)piperidine-2-carboxamide Trifluoroacetate]	12.6

Continued, values first:

IC50 [nM]	Structure (SMILES)
126	N#CCCNC(=O)c1cccc(-c2ccc(C[C@@H](C#N)NC(=O)[C@@H]3CCCCN3)cc2)c1 [Example 85, (S)-N-((S)-1-Cyano-2-(3′-(2-cyanoethylcarbamoyl)biphenyl-4-yl)ethyl)piperidine-2-carboxamide]
79.4	N#C[C@H](Cc1ccc(-c2cccc(CC(N)=O)c2)cc1)NC(=O)[C@@H]1CCCCN1 [Example 86, (S)-N-((S)-2-(3′-(2-amino-2-oxoethyl)biphenyl-4-yl)-1-cyanoethyl)piperidine-2-carboxamide Trifluoroacetate]
50.1	CN(C)S(=O)(=O)c1cccc(-c2ccc(C[C@@H](C#N)NC(=O)[C@@H]3CCCCN3)cc2)c1 [Example 87, (S)-N-((S)-1-Cyano-2-(3′-(N,N-dimethylsulfamoyl)biphenyl-4-yl)ethyl)piperidine-2-carboxamide Trifluoroacetate]
63.1	N#C[C@H](Cc1ccc(-c2cccc(S(=O)(=O)N3CCCC3)c2)cc1)NC(=O)[C@@H]1CCCCN1 [Example 88, (S)-N-((S)-1-Cyano-2-(3′-(pyrrolidin-1-ylsulfonyl)biphenyl-4-yl)ethyl)piperidine-2-carboxamide Trifluoroacetate]
63.1	CS(=O)(=O)NCc1cccc(-c2ccc(C[C@@H](C#N)NC(=O)[C@@H]3CCCCN3)cc2)c1 [Example 89, (S)-N-((S)-1-Cyano-2-(3′-(methylsulfonamidomethyl)biphenyl-4-yl)ethyl)piperidine-2-carboxamide Trifluoroacetate]
126	CC(=O)NCc1cccc(-c2ccc(C[C@@H](C#N)NC(=O)[C@@H]3CCCCN3)cc2)c1 [Example 90, (S)-N-((S)-2-(3′-(Acetamidomethyl)biphenyl-4-yl)-1-cyanoethyl)-piperidine-2-carboxamide Trifluoroacetate]
